Reference: patent US20260232701A1, “[…] AN […] REUPTAKE INHIBITOR FOR USE IN THE TREATMENT OF TREAMENT- RESISTANT DEPRESSION” (Compass Pathfinder Limited, priority 2021, published 2026)
In brackets after ≈: the same amount, converted by molar mass.

Key:
[1] = test system: participants with treatment-resistant depression (TRD); assay: Montgomery-Asberg Depression Rating Scale (MADRS), Phase IIb open-label study of psilocybin adjunct to SSRI; assay type: in vivo, human; settings: for MADRS total score, Mean (SD) / MADRS Remitters (MADRS total score ≤10) / MADRS Responders (≥50% decrease in MADRS total score from baseline) / MADRS total score, Change from baseline Mean (SD): 25 mg + SSRI, N = 19
Procedure: The effectiveness of 25 mg COMP360 as an adjunctive therapy in participants with TRD was explored.
The study was a Phase IIb, international multicentre, fixed-dose, open-label study. The study population included adult men and women, 18 years of age or older, with TRD. […] The duration of the current episode must be at least 3 months but not more than 2 years.
The psilocybin administration session (V3, day 1) will last approximately 6 h and will be supported by a trained therapist. The study drug will be administered simultaneously to up to six participants. Blood pressure will be monitored continuously during the session. The COMP360 administration session may be video recorded for training and adherence monitoring. After the acute effects of psilocybin pass, participants will be evaluated for safety and accompanied home. On day 2 (V4), the day following psilocybin administration, participants will be seen in person for a safety check, assessment of suicidality and clinical and self-report assessments, and to discuss their experience during the psilocybin administration session. All sessions between the therapist and the participant may be audio recorded for adherence monitoring and quality assurance.
The primary objective of this study is to evaluate the efficacy of 25 mg of psilocybin adjunct to serotonergic antidepressants in TRD participants, as assessed by the change in the Montgomery-Asberg Depression Rating Scale (MADRS) total score from baseline. Baseline is defined as the assessment score obtained on Day −1. The primary time point is week 3.
(§1) Additional objectives of this study are to assess the efficacy of psilocybin […] on the: • (a) proportion of subjects with response defined as a ≥50% decrease in MADRS total score from baseline to week 3. • (b) proportion of subjects with remission (defined as a MADRS total score ≤10) at week 3 post psilocybin administration. • (c) changes from baseline Clinical Global Impression-Severity scale (CGI-S) at week 3 post psilocybin administration.

[2] = test system: participants with treatment-resistant depression (TRD); assay: Clinical Global Impression - Severity scale (CGI-S), same study; assay type: in vivo, human; settings: for CGI-S Responders: 25 mg + SSRI, N = 19
Procedure: as §1

[3] = test system: participants with treatment-resistant depression (TRD); assay: Clinical Global Impression - Improvement scale (CGI-I), same study; assay type: in vivo, human; settings: 25 mg + SSRI, N = 19
[4] = test system: participants with treatment-resistant depression (TRD); assay: Safety: treatment emergent adverse events (TEAE), same study; assay type: in vivo, human
Text: Another objective is to evaluate the safety and tolerability of psilocybin in subjects with TRD based on AEs, changes in vital signs, and suicidal ideation/behaviour (measured using the Columbia-Suicide Severity Rating Scale [C-SSRS]) score at all visits.
Throughout the course of the study, all adverse events (AEs) will be monitored and recorded and will include the AE's description, start and end date, seriousness, severity, action taken, and relationship to the treatment. If AEs occur, the first concern will be the safety of the study subjects.
An AE can therefore be any unfavorable and unintended sign (including an abnormal laboratory finding, for example), symptom, or disease temporally associated with the use of a medicinal product, whether considered related to the medicinal product.
AEs will be coded by Preferred Term (PT) using the Medical Dictionary for Regulatory Activities (MedDRA) classification. All reported AEs with onset or worsening after the administration of study medication will be included in the analysis. The incidence of AEs will be summarized by treatment group, and by severity and relationship to psilocybin. Serious AEs and AEs leading to withdrawal from the study will be tabulated.
A TEAE is defined as any AE that has an onset on or after the dose of psilocybin, or any pre-existing condition that has worsened on or after the dose of psilocybin.
The incidence of TEAEs and treatment-related AEs will also be summarized by maximum severity and most-related relationship to psilocybin by MedDRA primary system organ class and PT. The summary will include the total number and percentage of subjects reporting an event.

[5] = week 3, single 25 mg dose adjunct to SSRI
[6] = 25 mg adjunct to SSRI, 19 patients
[7] = on the day of dosing or the day after
[8] = severity mild, 25 mg + SSRI, N = 19
[9] = severity moderate, 25 mg + SSRI, N = 19

SMILES: CN(C)CCc1c[nH]c2cccc(OP(=O)(O)O)c12 [COMP360, psilocybin]
- MADRS total score, Mean (SD) ([1]; Baseline (before dosing)): 31.7 (5.77)
- MADRS Remitters (MADRS total score ≤10) ([1]; Day 2): 10 (52.6) n (%)
- MADRS Responders (≥50% decrease in MADRS total score from baseline) ([1]; Day 2): 12 (63.2) n (%)
- MADRS total score, Change from baseline Mean (SD) ([1]; Day 2): −18.3 (11.85)
- MADRS total score, Mean (SD) ([1]; Day 2): 13.4 (12.92)
- MADRS Remitters (MADRS total score ≤10) ([1]; Week 1): 9 (47.4) n (%)
- MADRS Responders (≥50% decrease in MADRS total score from baseline) ([1]; Week 1): 11 (57.9) n (%)
- MADRS total score, Change from baseline Mean (SD) ([1]; Week 1): −17.1 (11.29)
- MADRS total score, Mean (SD) ([1]; Week 1): 14.6 (11.88)
- MADRS Remitters (MADRS total score ≤10) ([1]; Week 2): 8 (42.1) n (%)
- MADRS Responders (≥50% decrease in MADRS total score from baseline) ([1]; Week 2): 11 (57.9) n (%)
- MADRS total score, Change from baseline Mean (SD) ([1]; Week 2): −15.7 (12.02)
- MADRS total score, Mean (SD) ([1]; Week 2): 16.0 (11.70)
- MADRS Remitters (MADRS total score ≤10) ([1]; Week 3): 8 (42.1) n (%)
- MADRS Responders (≥50% decrease in MADRS total score from baseline) ([1]; Week 3): 8 (42.1) n (%)
- MADRS total score, Change from baseline Mean (SD) ([1]; Week 3): −14.9 (11.97)
- MADRS total score, Mean (SD) ([1]; Week 3): 16.8 (11.62)
- proportion of participants who were MADRS remitters ([1]; by week 3, single 25 mg dose adjunct to SSRI): ~ 42%
- proportion of participants who were MADRS responders [1, 5]: ~ 42%
- average reduction in MADRS total score from baseline ([1]; week 3, single 25 mg dose adjunct to SSRI, 19 patients): 14.9
- CGI-S Responders ([2]; Day 2): 8 (42.1) n (%)
- CGI-S Responders ([2]; Week 1): 12 (63.2) n (%)
- CGI-S Responders ([2]; Week 2): 11 (57.9) n (%)
- CGI-S Responders ([2]; Week 3): 10 (52.6) n (%)
- average CGI-S score ([2]; baseline ("moderately ill")): 4
- average CGI-S score ([2]; week 3 ("mildly ill"), single 25 mg dose adjunct to SSRI): 3
- proportion of participants who were CGI-S responders [2, 5]: 52.6%
- CGI-I Responders ([3]; Day 2): 11 (57.9) n (%)
- CGI-I Responders ([3]; Week 1): 12 (63.2) n (%)
- CGI-I Responders ([3]; Week 2): 8 (42.1) n (%)
- CGI-I Responders ([3]; Week 3): 7 (36.8) n (%)
- TEAEs classed as serious (TESAEs) [4, 6]: no TEAEs classed as serious
- TEAEs related to suicidal ideation or behaviour or intentional self-injury [4, 6]: no TEAEs related to suicidal ideation or behaviour or intentional self-injury
- tolerability [4, 6]: generally well tolerated
- resolution of headache TEAE ([4]; all cases): all cases resolved in one or two days
- most common TEAE headache, events [4, 7]: 6 events
- most common TEAE headache, participants [4, 7]: 6 participants
- TEAE Blood pressure increase [4, 8]: 1 (5.3) n (%)
- TEAE Diarrhoea [4, 8]: 1 (5.3) n (%)
- TEAE Dizziness [4, 8]: 1 (5.3) n (%)
- TEAE Dry mouth [4, 8]: 1 (5.3) n (%)
- TEAE Fall [4, 8]: 1 (5.3) n (%)
- TEAE Headache [4, 8]: 5 (26.3) n (%)
- TEAE Palpitations [4, 8]: 1 (5.3) n (%)
- TEAE Skin abrasion [4, 8]: 1 (5.3) n (%)
- TEAE Vertigo [4, 8]: 1 (5.3) n (%)
- TEAE Depression [4, 9]: 1 (5.3) n (%)
- TEAE Headache [4, 9]: 1 (5.3) n (%)
- TEAE Hypertension ([4]; severity severe, 25 mg + SSRI, N = 19): 1 (5.3) n (%)
- solubility (Solubility in water): ~15 mg/mL (≈ 52.8 mM)
